Measurements: publication PMC8388802, “Study on the Structure-Activity Relationship of an Antimicrobial Peptide, Brevinin-2GUb, from the Skin Secretion of Hylarana guentheri” (Antibiotics, 2021)
In brackets after ≈: the same amount, converted by molar mass. Where a SMILES comes first, the peptide text is derived from it.

Experiments:
E. coli (ATCC BAA-2340) = format: cell-based, Escherichia coli
Protocol: The method of antimicrobial assay is based on the Methods for Dilution Antimicrobial Susceptibility Tests for Bacteria that Grow Aerobically from the Clinical and Laboratory Standards Institute (CLSI).The antimicrobial activities of peptides were evaluated against Gram-positive bacteria S. aureus (ATCC 6538), MRSA (NCTC 12493), E. faecalis (NCTC 12493), Gram-negative bacteria E. coli (ATCC CRM 8739), K. pneumoniae (ATCC 43816), P. aeruginosa (ATCC CRM 9027), yeast C. albicans (ATCC CRM 10231) and clinical isolates MRSA (B042 V2E1 A), E. coli (ATCC BAA-2340), K. pneumoniae (ATCC BAA-1705), P. aeruginosa (B004 V2S2 B).
At the first stage of the assay, 20 μL bacteria were cultured in 100 mL Mueller Hinton Broth (MHB) or Yeast Extract–Peptone–Dextrose broth (YPD-B), respectively, and was incubated overnight. Then, microorganisms were subcultured in 20 mL fresh MHB or YPD-B to achieve cultures in the logarithmic phase (1 × 10^8 CFU/mL), which can be verified by optical density (OD) (The OD of Gram-positive bacteria is 0.23, OD of Gram-negative bacteria is 0.4, and OD of yeast is 0.15), and viable cell counts. Then, the medium was used to dilute the cultures to specific cell densities (Gram-negative and Gram-positive bacteria: 5 × 10^5 CFU/mL; yeast: 1 × 10^6 CFU/mL), which were the final concentrations of bacterial suspensions used in the assay. The peptides were dissolved in DMSO to reach a final concentration of 512 µM. A series of two-fold dilutions ranging from 512 µM to 1 µM were dosed in the 96-well plates.
Antimicrobial assays were conducted in 96-well plates, which were divided into five groups, including a negative control group (PBS), a positive control group (20 μg/mL norfloxacin for bacteria and 10 μg/mL amphotericin B for yeast), vehicle control (1% DMSO), blank control (MHB or YPD-B), and a peptide group. Each microorganism had five repetitions, and each well contained 1 µL corresponding solution and 99 µL culture. After incubation at 37 °C overnight, the absorbance of each well was tested by a microplate reader (EL808, Biolise BioTek Winooski, Minneapolis, USA) under a 550 nm wavelength. The MIC is the lowest concentration at which no bacterial growth can be observed.
The next day, 10 µL of every clear well was taken out to be cultured on a Mueller Hinton Agar (MHA) plate and incubated at 37 °C for 16–20 h. The MBC is the lowest concentration without any bacterial colonies, which means at this concentration, the peptide reduces the viability of the pathogen by more than 99.9%.

[1] = test system: MRSA (NCTC 12493) biofilm; format: cell-based, Methicillin-resistant Staphylococcus aureus; details: NCTC 12493, 24 h
Protocol: The anti-biofilm activities of the peptides against S. aureus (ATCC 6538), MRSA (NCTC 12493), E. faecalis (NCTC 12493), E. coli (ATCC CRM 8739), K. pneumoniae (ATCC 43816), and P. aeruginosa (ATCC CRM 9027) were evaluated.
The bacteria were inoculated in a different medium (Gram-positive bacteria were in TSB and Gram-negative bacteria were in LB) overnight, and the subculture was conducted in the same medium. When the bacteria reached a specific density, 100 µL of the dilution was added to each well of the 96-well microplate. Then 1 µL of peptide at a series of concentrations, the same concentration in the antimicrobial assay, were added into the well together with the bacteria. The plates were put into a moist shaking incubator with a speed of 200 rpm, and the temperature was set at 37 ℃. After a 24-h incubation, the liquid in the wells was aspirated, and each was washed twice by 100 µL PBS. One hundred µL of methanol were added into each well to stabilise the biofilm. After air-drying, 100 µL crystal violet was used to dye the biofilm, and they were dissolved in the 100 µL glacial acidic acid after drying. The solutions were transferred to a new microplate, and the absorbance of each well was tested by a microplate reader (EL808, Biolise BioTek Winooski, Minneapolis, MN, USA) at 595 nm wavelength. MBIC was the minimum concentration of the peptide showing no biofilm formation.
The bacteria were inoculated in a different medium (Gram-positive bacteria were in TSB and Gram-negative bacteria were in LB) overnight, and the subculture was conducted in the same medium. When the bacteria reached a specific density, 100 µL of the dilution was added to each well of the 96-well microplates. The plates were put into a moist shaking incubator with a speed of 200 rpm and the temperature was 37 ℃. […] The solutions were transferred to a new microplate, and the absorbance of each well was tested by a microplate reader (EL808, Biolise BioTek Winooski, Minneapolis, USA) at 595 nm wavelength.

[2] = test system: wax moth (Galleria mellonella); experiment: Toxicity of peptides to waxworms; format: in vivo; details: uninfected waxworms, 7.5, 15 and 30 mg/kg, injection

Compound	MBC (E. coli (ATCC BAA-2340))	MIC (E. coli (ATCC BAA-2340))	MBIC [1]	survival rate of waxworms treated with peptide [2]
CC[C@H](C)[C@H](NC(=O)[C@@H](NC(=O)CN)C(C)C)C(=O)N[C@H](C(=O)N[C@@H](CCCCN)C(=O)N[C@H](C(=O)N[C@@H](CC(C)C)C(N)=O)[C@@H](C)O)[C@@H](C)CC [Peptide 7-tB2U-K] (H-GVIIKTL-NH2)	>512 µM	>512 µM	–	–
CC[C@H](C)[C@H](NC(=O)[C@@H](NC(=O)CN)C(C)C)C(=O)N[C@H](C(=O)N[C@@H](CCCCN)C(=O)N[C@H](C(=O)N[C@@H](CC(C)C)C(=O)N[C@@H](CCCCN)C(=O)NCC(=O)N[C@@H](C)C(=O)N[C@@H](C)C(=O)N[C@@H](CCCCN)C(=O)N[C@H](C(=O)N[C@H](C(N)=O)C(C)C)[C@@H](C)O)[C@@H](C)O)[C@@H](C)CC [Peptide 14-tB2U-K] (H-GVIIKTLKGAAKTV-NH2)	>512 µM	>512 µM	–	–
CC[C@H](C)[C@H](NC(=O)[C@@H](NC(=O)CN)C(C)C)C(=O)N[C@H](C(=O)N[C@@H](CCCCN)C(=O)N[C@@H](CCCCN)C(=O)N[C@@H](CC(C)C)C(=O)N[C@@H](CCCCN)C(=O)NCC(=O)N[C@@H](C)C(=O)N[C@@H](C)C(=O)N[C@@H](CCCCN)C(=O)N[C@@H](CCCCN)C(=O)N[C@H](C(=O)N[C@@H](C)C(=O)N[C@@H](C)C(=O)N[C@@H](CCCCN)C(=O)N[C@@H](CC(C)C)C(=O)N[C@@H](CC(C)C)C(N)=O)C(C)C)[C@@H](C)CC [tB2U-6K] (H-GVIIKKLKGAAKKVAAKLL-NH2)	8 µM (≈ 15.6 µg/mL)	8 µM (≈ 15.6 µg/mL)	32 µM	100%
CC[C@H](C)[C@H](NC(=O)[C@@H](NC(=O)CN)C(C)C)C(=O)N[C@H](C(=O)N[C@@H](CCCCN)C(=O)N[C@H](C(=O)N[C@@H](CC(C)C)C(=O)N[C@@H](CCCCN)C(=O)NCC(=O)N[C@@H](C)C(=O)N[C@@H](C)C(=O)N[C@@H](CCCCN)C(=O)N[C@H](C(=O)N[C@H](C(=O)N[C@@H](C)C(=O)N[C@@H](C)C(=O)N[C@@H](CCCCN)C(=O)N[C@@H](CC(C)C)C(=O)N[C@@H](CC(C)C)C(N)=O)C(C)C)[C@@H](C)O)[C@@H](C)O)[C@@H](C)CC [tB2U-K] (H-GVIIKTLKGAAKTVAAKLL-NH2)	16 µM (≈ 30.3 µg/mL)	16 µM (≈ 30.3 µg/mL)	16 µM	100%
CC[C@H](C)[C@H](NC(=O)[C@@H](NC(=O)CN)C(C)C)C(=O)N[C@H](C(=O)N[C@@H](CC(=O)O)C(=O)N[C@H](C(=O)N[C@@H](CC(C)C)C(=O)N[C@@H](CCCCN)C(=O)NCC(=O)N[C@@H](C)C(=O)N[C@@H](C)C(=O)N[C@@H](CCCCN)C(=O)N[C@H](C(=O)N[C@H](C(=O)N[C@@H](C)C(=O)N[C@@H](C)C(=O)N[C@@H](CCC(=O)O)C(=O)N[C@@H](CC(C)C)C(=O)N[C@@H](CC(C)C)C(N)=O)C(C)C)[C@@H](C)O)[C@@H](C)O)[C@@H](C)CC [tB2U-α] (H-GVIIDTLKGAAKTVAAELL-NH2)	>512 µM	>512 µM	–	–
